Experimental data: ChEMBL document CHEMBL4613212, “Insights of synthetic analogues of anti-leprosy agents” (Bioorg Med Chem, 2019)
Active and inactive are the calls of the source. No cut-off for these calls is given here.

Tests used:
Type in all cases: functional
[1] = tested on: Mycobacterium tuberculosis; test: Antitubercular activity against Mycobacterium tuberculosis infected in mouse assessed as reduction in microbial load at 2 to 3 mg ip, pretreated for 48 to 72 hrs followed by microbial infection and subsequent compound dosing at 48 to 72 hrs post-infection measured 24 to 32 days post-infection relative to control; design: scale not given: the % may be the effect or the level left
[2] = tested on: Mycobacterium tuberculosis; test: Antitubercular activity against Mycobacterium tuberculosis H37Rv ATCC 27294 assessed as growth inhibition at 6.25 ug/ml by microplate alamar blue assay relative to control
[3] = tested on: Mycobacterium tuberculosis; test: Antitubercular activity against Mycobacterium tuberculosis H37Rv ATCC 27294 assessed as inhibition of [3H]-thymidine incorporation relative to control
Mycobacterium leprae = test: Anti-leprotic activity against Mycobacterium leprae assessed as maximum bactericidal dilutions

CC(C)(C)c1cc2c(O)c(c1)Cc1cc(C(C)(C)C)cc(c1O)Cc1cc(C(C)(C)C)cc(c1O)Cc1cc(C(C)(C)C)cc(c1O)Cc1cc(C(C)(C)C)cc(c1O)Cc1cc(C(C)(C)C)cc(c1O)Cc1cc(C(C)(C)C)cc(c1O)Cc1cc(C(C)(C)C)cc(c1O)C2
Activity [1]: 20 - 50%

c1coc(-c2ncnc3c2ncn3C2CCOCC2)c1
inhibition at 6.25 µg/mL [2]: 0%
inhibition (INH) [3]: 15%

CCCCCCCCCC(C(=O)O)C1CCCCC1 (stereo not drawn)
fold change (FC) (Mycobacterium leprae): 190

CCCCCCCCCC(C(=O)O)C1C=CCC1 (stereo not drawn)
fold change (FC) (Mycobacterium leprae): 150

CC(C)(C)c1cc2c(O)c(c1)Cc1cc(C(C)(C)C)cc(c1O)Cc1cc(C(C)(C)C)cc(c1O)Cc1cc(C(C)(C)C)cc(c1O)Cc1cc(C(C)(C)C)cc(c1O)Cc1cc(C(C)(C)C)cc(c1O)C2
Activity [1]: inactive

CC(C)(C)c1cc2c(O)c(c1)Cc1cc(C(C)(C)C)cc(c1OCCOCCOCCOCCOCCOCCO)Cc1cc(C(C)(C)C)cc(c1O)Cc1cc(C(C)(C)C)cc(c1OCCOCCOCCOCCOCCOCCO)Cc1cc(C(C)(C)C)cc(c1O)Cc1cc(C(C)(C)C)cc(c1OCCOCCOCCOCCOCCOCCO)Cc1cc(C(C)(C)C)cc(c1O)Cc1cc(C(C)(C)C)cc(c1OCCOCCOCCOCCOCCOCCO)C2
Activity [1]: 20 - 50%

CCCCCCCCCCC(C(=O)O)C1CCCCC1 (stereo not drawn)
fold change (FC) (Mycobacterium leprae): 180

Oc1c2cc(-c3ccccc3)cc1Cc1cc(-c3ccccc3)cc(c1O)Cc1cc(-c3ccccc3)cc(c1O)Cc1cc(-c3ccccc3)cc(c1O)Cc1cc(-c3ccccc3)cc(c1O)Cc1cc(-c3ccccc3)cc(c1O)Cc1cc(-c3ccccc3)cc(c1O)Cc1cc(-c3ccccc3)cc(c1O)C2
Activity [1]: 20 - 50%

COCCOCCOCCOc1c2cc(C(C)(C)C)cc1Cc1cc(C(C)(C)C)cc(c1OCCOCCOCCOC)Cc1cc(C(C)(C)C)cc(c1OCCOCCOCCOC)Cc1cc(C(C)(C)C)cc(c1OCCOCCOCCOC)Cc1cc(C(C)(C)C)cc(c1OCCOCCOCCOC)Cc1cc(C(C)(C)C)cc(c1OCCOCCOCCOC)Cc1cc(C(C)(C)C)cc(c1OCCOCCOCCOC)Cc1cc(C(C)(C)C)cc(c1OCCOCCOCCOC)C2
Activity [1]: 80 - 100%

Clc1nc(-c2cccs2)c2ncn(C3CCOCC3)c2n1
inhibition at 6.25 µg/mL [2]: 7%
inhibition (INH) [3]: 61%

Clc1nc(-c2ccco2)c2ncn(C3CCOCC3)c2n1
inhibition at 6.25 µg/mL [2]: 6%
inhibition (INH) [3]: 36%

CCCCCCCCCCC(C(=O)O)C1C=CCC1 (stereo not drawn)
fold change (FC) (Mycobacterium leprae): 167

CCCCCCC(CCC1CCCC1)C(=O)O (stereo not drawn)
fold change (FC) (Mycobacterium leprae): 320

c1csc(-c2ncnc3c2ncn3C2CCOCC2)c1
inhibition at 6.25 µg/mL [2]: 0%
inhibition (INH) [3]: 23%

CC(C)(C)c1cc2c(O)c(c1)Cc1cc(C(C)(C)C)cc(c1OCCOCCOCCOCCOCCOCCOCCOCCOCCOCCOCCOCCO)Cc1cc(C(C)(C)C)cc(c1O)Cc1cc(C(C)(C)C)cc(c1OCCOCCOCCOCCOCCOCCOCCOCCOCCOCCOCCOCCO)Cc1cc(C(C)(C)C)cc(c1O)Cc1cc(C(C)(C)C)cc(c1OCCOCCOCCOCCOCCOCCOCCOCCOCCOCCOCCOCCO)Cc1cc(C(C)(C)C)cc(c1O)Cc1cc(C(C)(C)C)cc(c1OCCOCCOCCOCCOCCOCCOCCOCCOCCOCCOCCOCCO)C2
Activity [1]: 20 - 50%

CC(C)(C)c1cc2c(OCCOCCOCCOCCOCCOCCO)c(c1)Cc1cc(C(C)(C)C)cc(c1OCCOCCOCCOCCOCCOCCO)Cc1cc(C(C)(C)C)cc(c1OCCOCCOCCOCCOCCOCCO)Cc1cc(C(C)(C)C)cc(c1OCCOCCOCCOCCOCCOCCO)Cc1cc(C(C)(C)C)cc(c1OCCOCCOCCOCCOCCOCCO)Cc1cc(C(C)(C)C)cc(c1OCCOCCOCCOCCOCCOCCO)C2
Activity [1]: 80 - 100%

Oc1c2cc(-c3ccccc3)cc1Cc1cc(-c3ccccc3)cc(c1O)Cc1cc(-c3ccccc3)cc(c1O)Cc1cc(-c3ccccc3)cc(c1O)Cc1cc(-c3ccccc3)cc(c1O)Cc1cc(-c3ccccc3)cc(c1O)Cc1cc(-c3ccccc3)cc(c1O)C2
Activity [1]: 20 - 50%

c1csc(-c2[nH]cnc3ncnc2-3)c1
inhibition at 6.25 µg/mL [2]: 7%
inhibition (INH) [3]: <10%

CCCCCCCCCCCC(C(=O)O)C1CCCC1 (stereo not drawn)
fold change (FC) (Mycobacterium leprae): 153

OCCOCCOCCOCCOCCOCCOCCOCCOCCOCCOCCOCCOc1c2cc(-c3ccccc3)cc1Cc1cc(-c3ccccc3)cc(c1OCCOCCOCCOCCOCCOCCOCCOCCOCCOCCOCCOCCO)Cc1cc(-c3ccccc3)cc(c1OCCOCCOCCOCCOCCOCCOCCOCCOCCOCCOCCOCCO)Cc1cc(-c3ccccc3)cc(c1OCCOCCOCCOCCOCCOCCOCCOCCOCCOCCOCCOCCO)Cc1cc(-c3ccccc3)cc(c1OCCOCCOCCOCCOCCOCCOCCOCCOCCOCCOCCOCCO)Cc1cc(-c3ccccc3)cc(c1OCCOCCOCCOCCOCCOCCOCCOCCOCCOCCOCCOCCO)Cc1cc(-c3ccccc3)cc(c1OCCOCCOCCOCCOCCOCCOCCOCCOCCOCCOCCOCCO)C2
Activity [1]: 80 - 100%

Cn1cnc2c(-c3ccco3)ncnc21
inhibition at 6.25 µg/mL [2]: 0%
inhibition (INH) [3]: <10%

CCCCCCC(CCC1CCCCC1)C(=O)O (stereo not drawn)
fold change (FC) (Mycobacterium leprae): 125
